Results on four compounds are retold here after article PMC9646721, “Alkaloid binding to opium poppy major latex proteins triggers structural modification and functional aggregation” (Nature Communications, 2022).

Data set [1] has as its target T1, PR10-10 (Papaver somniferum, UniProt A0A9Y2YA81).
T1 sequence (A0A9Y2YA81 1-158): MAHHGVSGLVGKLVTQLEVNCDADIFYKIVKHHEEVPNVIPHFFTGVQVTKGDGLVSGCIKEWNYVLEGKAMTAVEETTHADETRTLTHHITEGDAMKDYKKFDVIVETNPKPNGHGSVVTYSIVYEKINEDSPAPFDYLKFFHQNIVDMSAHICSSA
In words: ANS fluorescence binding curve (direct ANS-protein affinity). The conditions noted are these: weak signal, Kd not determined.
Description: (§4) 8-anilino-1-naphthalenesulfonic acid (ANS) fluorescence binding curves and the binding-induced reduction in ANS fluorescence resulting from competition with tested ligands across a range of concentration facilitated the measurement of IC50 and an estimate of Kd values using the binding models and procedures described previously[70]. […] ANS was dissolved in dimethylsufoxide at a concentration of 20 mM, stored at −20 °C until dilution and protected from exposure to light. […] 40 µl of the ANS solution and 40 µl of each MLP/PR10 protein solution were combined to 80 µl final reaction volumes, which were incubated at 21 °C for 10 min to allow equilibration of binding. […] An identical reaction series whereby protein was omitted from the mixtures was measured under identical conditions and trace fluorescence was subtracted from each MLP/PR10 protein-containing sample. Each data set was scaled so that the maximum observed fluorescence corresponded to 100% and individual data points were plotted, and a rectangular hyperbolic ligand binding function was fit, using least-squares analysis (Prism 5 software, Graphpad, USA). Experiments were repeated at least twice with independently prepared protein.

The target of data set [2] is PR10-4. The conditions noted are these: read-out: Kd (ANS-protein, apparent); ANS 10 µM fixed, protein 0 to 100 µM; CBS pH 5.5; one-site hyperbolic model.
Description: (§5) 8-anilino-1-naphthalenesulfonic acid (ANS) fluorescence binding curves and the binding-induced reduction in ANS fluorescence resulting from competition with tested ligands across a range of concentration facilitated the measurement of IC50 and an estimate of Kd values using the binding models and procedures described previously[70]. […] ANS was dissolved in dimethylsufoxide at a concentration of 20 mM, stored at −20 °C until dilution and protected from exposure to light. […] 40 µl of the ANS solution and 40 µl of each MLP/PR10 protein solution were combined to 80 µl final reaction volumes, which were incubated at 21 °C for 10 min to allow equilibration of binding. Triplicate 18-µl aliquots were withdrawn from each 80 µl reaction, transferred to optically clear PCR tubes (Diamed, Canada) and ANS fluorescence was measured following an additional 3-min incubation at 30 °C using a Qiagen Rotor-gene Q 6-plex with excitation and emission filters of 365 ± 20 nm and 460 ± 20 nm, respectively. An identical reaction series whereby protein was omitted from the mixtures was measured under identical conditions and trace fluorescence was subtracted from each MLP/PR10 protein-containing sample. […]
The target in data set [3] is PR10-12. The conditions noted are these: read-out: Kd (ANS-protein, apparent); ANS 10 µM fixed, protein 0 to 100 µM; CBS pH 5.5; one-site hyperbolic model.
Description: as §5
For data set [4], the target named is MLP2. The conditions noted are these: read-out: Kd (ANS-protein, apparent); ANS 10 µM fixed, protein 0 to 100 µM; CBS pH 5.5; one-site hyperbolic model.
Description: as §5
Data set [5] deals with T2, THS2 (Papaver somniferum, UniProt A0A2U9GGW3). In words: ANS fluorescence binding curve (direct ANS-protein affinity). The arrangement: made in house; host or cells: E. coli ArcticExpress (DE3). The conditions noted are these: Kd (ANS-protein, apparent), ANS 10 µM fixed, protein 0 to 100 µM; CBS pH 5.5; one-site hyperbolic model.
T2 sequence (A0A2U9GGW3 whole entry): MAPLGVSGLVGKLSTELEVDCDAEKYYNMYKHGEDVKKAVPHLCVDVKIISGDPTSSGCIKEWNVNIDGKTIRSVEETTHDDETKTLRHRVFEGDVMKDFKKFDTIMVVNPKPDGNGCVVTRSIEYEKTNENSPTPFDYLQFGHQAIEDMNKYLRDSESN
Description: as §4
In data set [6] the target is T3, NISO (Papaver somniferum, UniProt P0DYP9). The data set is described as above. The arrangement: made in house; host or cells: E. coli ArcticExpress (DE3). To be noted: Kd (ANS-protein, apparent), ANS 10 µM fixed, protein 0 to 100 µM; CBS pH 5.5; one-site hyperbolic model.
T3 sequence (P0DYP9 entry or part of it): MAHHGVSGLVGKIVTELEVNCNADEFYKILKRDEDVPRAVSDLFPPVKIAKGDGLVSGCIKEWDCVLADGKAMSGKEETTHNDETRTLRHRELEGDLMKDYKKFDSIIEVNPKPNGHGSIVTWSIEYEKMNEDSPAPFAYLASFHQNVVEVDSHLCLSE
Description: as §4
For data set [7], the target named is T4, MLP15 (Papaver somniferum, UniProt P19825).
T4 sequence (P19825 1-159): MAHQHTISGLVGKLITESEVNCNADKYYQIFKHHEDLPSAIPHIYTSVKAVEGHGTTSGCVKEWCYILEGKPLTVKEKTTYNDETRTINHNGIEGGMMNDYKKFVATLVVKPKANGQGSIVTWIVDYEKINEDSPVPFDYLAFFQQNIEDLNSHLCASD
Described as above. The arrangement: made in house; host or cells: E. coli ArcticExpress (DE3). The conditions noted are these: Kd (ANS-protein, apparent), ANS 10 µM fixed, protein 0 to 100 µM; CBS pH 5.5; one-site hyperbolic model.
Description: as §4

In data set [8] the target is T4, MLP15. Put plainly: Isothermal titration calorimetry. The class given is binding. Also noted: made in house; host or cells: E. coli ArcticExpress (DE3). To be noted: ITC, CBS pH 5.5, 25 °C. The procedure:
ITC experiments were conducted using a Microcal VP instrument (Malvern Pananalytical, Malvern, UK). […] Dialysis was carried out in boiled Spectra/Por 1 6–8 kDa MWCO 0.32 ml/cm (Spectrum Labs, USA) tubing thoroughly washed with either buffer before use. The second 1000-fold volume of dialysis buffer was filtered and degassed using a reusable bottle-top filtration apparatus (Nalgene, USA) with disposable […] cellulose filters (VWR, Canada) prior to storage at 4 °C. Ligands were dissolved in the filtered dialysis buffer at 21 °C for approximately one hour, and any insoluble material was removed by repeated centrifugation at 21,000 × g for 10 min. […] Prior to ITC, which was initiated immediately following dialysis, the protein solutions were centrifuged at 17,000 × g and 4 °C for 30 min. Any precipitate was separated from the remaining soluble protein fraction which was quantified by absorption at A280nm and diluted with filtered dialysis buffer immediately before use.
(§1) Thermograms were recorded at 25 °C, with a reference power of 10 (dpu/sec) and monitoring of 30 injections of 9 µl BIA ligand solutions into a sample cell containing 1.4 ml of an MLP/PR10 protein solution, with 300 seconds between injections. […] To ensure that we report only the heat of reaction for each interaction, independent titrations of ligand into buffer, and buffer into protein solutions, were used to calculate and then subtract heats of dilution. After subtraction, binding isotherms were analyzed in MicroCal Origin 7 (MicroCal, USA) by fitting a single-site binding model using non-linear least squares regression analysis repeated until convergence. […] Each ITC experiment was repeated 2 to 4 times.

The target of data set [9] is MLP2. In words: ANS displacement assay. The class given is binding, Papaver somniferum. From the text: (§2) Eluates were store separately on ice.
(§3) Displacement of ANS is associated with reduced fluorescence.

Data set [10] deals with PR10-12. Put plainly: ANS displacement assay. The class given is binding, Papaver somniferum.
Text: as §2, §3

Data set [11] concerns the target PR10-4. Put plainly: ANS displacement assay. The class given is binding, Papaver somniferum.
Text: as §2, §3

Data set [12] deals with T1, PR10-10. Put plainly: ANS displacement assay. The class given is binding. The conditions noted are these: ANS displacement dose-response fit.
Text: as §2, §3

For data set [13], the target named is T1, PR10-10. Put plainly: Isothermal titration calorimetry. To be noted: for Kd: ITC. The format is binding. The procedure:
ITC experiments were conducted using a Microcal VP instrument (Malvern Pananalytical, Malvern, UK). […] Eluates were twice dialysed to equilibrium (i.e., 10–12 h at 4 °C) against a 1000-fold (2–4 L) volume of PBS, pH 7.4 (25 mM sodium phosphate, 50 mM NaCl) or CBS, pH 5.5, resulting in a theoretical million-fold dilution of undesired small molecules (e.g., <0.2 µM imidazole). Dialysis was carried out in boiled Spectra/Por 1 6–8 kDa MWCO 0.32 ml/cm (Spectrum Labs, USA) tubing thoroughly washed with either buffer before use. The second 1000-fold volume of dialysis buffer was filtered and degassed using a reusable bottle-top filtration apparatus (Nalgene, USA) with disposable […] cellulose filters (VWR, Canada) prior to storage at 4 °C. Ligands were dissolved in the filtered dialysis buffer at 21 °C for approximately one hour, and any insoluble material was removed by repeated centrifugation at 21,000 × g for 10 min. […] Prior to ITC, which was initiated immediately following dialysis, the protein solutions were centrifuged at 17,000 × g and 4 °C for 30 min. Any precipitate was separated from the remaining soluble protein fraction which was quantified by absorption at A280nm and diluted with filtered dialysis buffer immediately before use.
as §1

A short description of data set [14]: Ligand solubility threshold in ITC buffer. The class given is physicochemical. To be noted: filtered dialysis buffer (CBS, 21 °C, aqueous buffer, thermodynamic from solid); pH 5.5, ITC buffer. The procedure:
ITC experiments were conducted using a Microcal VP instrument (Malvern Pananalytical, Malvern, UK). Recombinant MLP/PR10 protein preparation involving production in Escherichia coli followed by cobalt-affinity chromatography was optimized to yield relatively high purity in a single step as determined by SDS-PAGE and colloidal Coomassie blue silver staining. The less than 48 h decrease in atmospheric oxygen exposure generated high-quality proteins with reduced precipitate. […] Eluates were twice dialysed to equilibrium (i.e., 10–12 h at 4 °C) against a 1000-fold (2–4 L) volume of PBS, pH 7.4 (25 mM sodium phosphate, 50 mM NaCl) or CBS, pH 5.5, resulting in a theoretical million-fold dilution of undesired small molecules (e.g., <0.2 µM imidazole). […] Any precipitate was separated from the remaining soluble protein fraction which was quantified by absorption at A280nm and diluted with filtered dialysis buffer immediately before use.
Thermograms were recorded at 25 °C, with a reference power of 10 (dpu/sec) and monitoring of 30 injections of 9 µl BIA ligand solutions into a sample cell containing 1.4 ml of an MLP/PR10 protein solution, with 300 seconds between injections. […] After subtraction, binding isotherms were analyzed in MicroCal Origin 7 (MicroCal, USA) by fitting a single-site binding model using non-linear least squares regression analysis repeated until convergence. […]

The nature of data set [15]: Sucrose density-gradient fractionation of Przemko latex with exogenous alkaloid. The arrangement: species or system Papaver somniferum. To be noted: exogenous alkaloid (420-460 mM) added to 80 µL Przemko latex, 14-66% sucrose gradient.
Description: Sucrose solutions (66%, 58%, 46%, 38%, 30%, 24 and 14% [w/v]) were prepared in 50 mM HEPES, pH 7.0, containing 5 mM EDTA. Continuous sucrose density gradients were prepared by layering the solutions (3 mL of 66, 58 and 46%, 6 mL of 38%, and 7 mL of 30, 24 and 14% [w/v] sucrose) in 38-mL thin-wall ultracentrifuge tubes (Beckman Coulter, USA) followed by equilibration at 4 °C for 24 h. Fresh latex (80 µL) was collected from decapitated unripe seed capsules in 1.5-mL microcentrifuge tubes and stored on ice for immediate loading on the sucrose gradients. […] Samples were incubated on ice for 30 min then diluted in 2 mL of latex suspension buffer (500 mM mannitol, 50 mM HEPES, pH 7.0, 5 mM EDTA, 1 mM PMSF) and layered onto sucrose density gradients, which were then centrifuged in an AH-629 rotor (Sorvall, USA) for 3 h at 100,000 × g at 4 °C. The bottom of the ultracentrifuge tube was punctured by a flame-heated 21 G needle and a total of 22 fractions (~1.7 mL) were collected manually. The refractive index of each fraction was measured by a digital refractometer (Reichert, USA) and converted to density. Protein concentration was determined by Bradford assay (BioRad, USA) and samples were stored at −80 °C until use.
Data set [16] addresses T2, THS2. In words: ANS displacement assay.
Description: (§6) 8-anilino-1-naphthalenesulfonic acid (ANS) fluorescence binding curves and the binding-induced reduction in ANS fluorescence resulting from competition with tested ligands across a range of concentration facilitated the measurement of IC50 and an estimate of Kd values using the binding models and procedures described previously[70]. […] ANS was dissolved in dimethylsufoxide at a concentration of 20 mM, stored at −20 °C until dilution and protected from exposure to light. […] 40 µl of the ANS solution and 40 µl of each MLP/PR10 protein solution were combined to 80 µl final reaction volumes, which were incubated at 21 °C for 10 min to allow equilibration of binding. Triplicate 18-µl aliquots were withdrawn from each 80 µl reaction, transferred to optically clear PCR tubes (Diamed, Canada) and ANS fluorescence was measured following an additional 3-min incubation at 30 °C using a Qiagen Rotor-gene Q 6-plex with excitation and emission filters of 365 ± 20 nm and 460 ± 20 nm, respectively. An identical reaction series whereby protein was omitted from the mixtures was measured under identical conditions and trace fluorescence was subtracted from each MLP/PR10 protein-containing sample. Each data set was scaled so that the maximum observed fluorescence corresponded to 100% and individual data points were plotted, and a rectangular hyperbolic ligand binding function was fit, using least-squares analysis (Prism 5 software, Graphpad, USA). Experiments were repeated at least twice with independently prepared protein.
(§7) Displacement of ANS is associated with reduced fluorescence. […] Briefly, 40 µl of 20 µM ANS and individual MLP/ PR10 protein solutions were combined in CBS buffer, pH 5.5, incubated at 21 °C for 5 min, mixed with 40 µl of separate 0 to 6 mM BIA solutions in CBS buffer, pH 5.5, and the 80 µl reactions were subsequently incubated for 10 min at 21 °C. Fluorescence was measured as described above, including subtraction of any fluorescence in a blank series whereby protein was omitted. […] Each experiment was repeated at least twice with independently prepared MLP/PR10 proteins and BIA ligand.
Data set [17] addresses T3, NISO. In words: ANS displacement assay.
Description: as §6, §7
Data set [18] concerns the target T4, MLP15. In words: ANS displacement assay.
Description: as §6, §7
Data set [19] has as its target T3, NISO. The arrangement: made in house; host or cells: E. coli ArcticExpress (DE3). To be noted: read-out: Km app (substrate kinetics); cited from earlier work.
The test system of data set [20] is THS. To be noted: cited from earlier work.
[21] abbreviates: 10 µM protein and 10 µM ANS, CBS pH 5.5.
The mark [22] stands for this setting: from average IC50 and PR10-ANS Kd, competitive inhibition assumed, read-out: Estimated Kd.

Values after ≈ are worked out from the molar mass of the structure shown. Values joined by “and” are separate entries in the source; they are usually repeats but may differ in a detail not shown here. Equal entries are not always repeated. Where two headings read alike, the source gives them in different places.

Regarding `O=S(=O)(O)c1cccc2cccc(Nc3ccccc3)c12` [ANS, 8-anilinonaphthalene-1-sulfonic acid], the “ANS binding to PR10-10 (in words)” value in [1] is “did not bind ANS in a typical manner”. Also, the Kd is 107 ± 15.3 µM in data set [2]; 356 ± 139 µM in [3]; 28.6 ± 3.9 µM in data set [4]; 21 µM and 20.9 µM in data set [5]; 61 µM and 60.5 µM in data set [6]; 78 µM and 78.4 µM in data set [7]. The compound also returned a Kd in [8] (single-site model) of 55.3 ± 2.8 µM. Also, the ΔH in data set [8] is -14.69 ± 0.4972 kcal/mol. For the same compound, the ΔS in data set [8] was -29.8 cal/mol/˚K. The compound further had a N in data set [8] (single-site model) of 1.06 ± 0.0244.

In the case of `COc1ccc(Cc2nccc3cc(OC)c(OC)cc23)cc1OC` [Papaverine, papaverine], the IC50 in data set [9] (setting [21]) was 61.4 µM; in data set [10] (setting [21]) it was 158 µM; in [11] (setting [21]), 41.7 µM; in data set [16] (IC50, THS2, 10 µM protein and 10 µM ANS, CBS pH 5.5), 493 µM; in [17] (IC50, NISO, 10 µM protein and 10 µM ANS, CBS pH 5.5) it was 96 µM and 95.5 µM; in data set [18] (IC50, MLP15, 10 µM protein and 10 µM ANS, CBS pH 5.5) it was 299 µM. The Log10IC50 in data set [9] (setting [21]) is listed as 1.79 ± 0.07; in data set [10] (setting [21]) it was 2.20 ± 0.09; in data set [11] (setting [21]) it was 1.62 ± 0.05; in data set [16] (THS2, 10 µM protein and 10 µM ANS, CBS pH 5.5), 2.69 ± 0.71; in [17] (NISO, 10 µM protein and 10 µM ANS, CBS pH 5.5), 1.98 ± 0.05; in data set [18] (MLP15, 10 µM protein and 10 µM ANS, CBS pH 5.5), 2.48 ± 0.08. For the same compound, the Kd was 45.5 µM in data set [9] (setting [22]); 154 µM in data set [10] (setting [22]); 38.1 µM in data set [11] (setting [22]); ~225 µM in [13] (CBS buffer, Fig. 4b prints no unit, read-out: Kd); 225 µM in [13] (CBS pH 5.5, printed in brackets beside *, read-out: Kd (estimate, low enthalpy system)); 333 µM in data set [16]. In addition, the Kd in data set [17] turned out to be 82 µM; in [18] it was 265 µM. The “Hill Slope” value was -0.36 ± 0.27 in [12]; -0.88 ± 0.34 in data set [16] (THS2, ANS displacement dose-response fit); -1.20 ± 0.05 in data set [17] (NISO, ANS displacement dose-response fit); -1.21 ± 0.08 in [18] (MLP15, ANS displacement dose-response fit). Besides, the “heat change of protein-ligand interaction after subtraction of the blank” value in data set [13] (ITC thermogram, pH 5.5) is -0.2 µcal/s. Moreover, in data set [14], the solubility is 1200 µM (≈ 407 µg/mL). Further, the “formation of dense aggregate bands in gradient” value in [15] was “one or more visibly insoluble dense aggregate bands”.

For `COc1ccc2c3c1O[C@H]1C(=O)C=C[C@H]4[C@@H](C2)N(C)CC[C@]314` [codeinone], the Km in [19] was 48 µM.

`COC1=C[C@]23CCN(C)[C@H](Cc4ccc(OC)c(O)c42)C3=C[C@@H]1OC(C)=O` [salutaridinol-7-O-acetate]: the “KA (substrate kinetics)” value in data set [20] was 22 µM.
